# Laboratory results taken from patent US7777077B2, “Dual-acting antihypertensive agents” (Theravance, Inc., priority 2007, dated 2010).
# Key:
# human AT1 receptor = biological target: T1, human AT1 receptor (Homo sapiens, UniProt P30556); experiment: AT1 radioligand binding assay; conditions: [Eu]AngII displacement, membranes of CHO-K1 cells expressing human AT1; read-out: pKi at the AT1 receptor (converted)
# T1 construct: expressed in transfected cells; membranes
# T1 sequence (P30556 1-359): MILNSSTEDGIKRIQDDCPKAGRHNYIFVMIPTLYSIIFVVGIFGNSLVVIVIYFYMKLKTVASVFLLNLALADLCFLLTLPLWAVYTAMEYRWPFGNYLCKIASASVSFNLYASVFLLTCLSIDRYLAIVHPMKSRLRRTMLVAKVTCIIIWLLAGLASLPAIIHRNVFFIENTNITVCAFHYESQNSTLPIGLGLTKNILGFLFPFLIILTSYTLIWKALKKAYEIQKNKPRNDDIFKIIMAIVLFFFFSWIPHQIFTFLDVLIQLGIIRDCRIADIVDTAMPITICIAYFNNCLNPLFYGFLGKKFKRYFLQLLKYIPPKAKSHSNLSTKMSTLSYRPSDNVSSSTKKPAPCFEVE
# Experimental: These in vitro assays were used to assess the ability of test compounds to bind to the AT1 and the AT2 receptors.
# Chinese hamster ovary (CHO-K1) derived cell lines stably expressing the cloned human AT1 or AT2 receptors, respectively, were grown in HAM's-F12 medium supplemented with 10% fetal bovine serum, 10 μg/ml penicillin/streptomycin, and 500 μg/ml geneticin in a 5% CO2 humidified incubator at 37° C. AT2 receptor expressing cells were grown in the additional presence of 100 nM PD123,319 (AT2 antagonist). When cultures reached 80-95% confluence, the cells were washed thoroughly in PBS and lifted with 5 mM EDTA. Cells were pelleted by centrifugation and snap frozen in MeOH-dry ice and stored at −80° C. until further use.
# For membrane preparation, cell pellets were resuspended in lysis buffer (25 mM Tris/HCl pH 7.5 at 4° C., 1 mM EDTA, and one tablet of Complete Protease Inhibitor Cocktail Tablets with 2 mM EDTA per 50 mL buffer (Roche cat.#1697498, Roche Molecular Biochemicals, Indianapolis, Ind.)) and homogenized using a tight-fitting Dounce glass homogenizer (10 strokes) on ice. The homogenate was centrifuged at 1000×g, the supernatant was collected and centrifuged at 20,000×g. […] Protein concentration of the membrane suspension was determined by the method described in Bradford (1976) Anal Biochem. 72:248-54. […]
# NEP enzyme = NEP enzyme (UniProt P08473); experiment: In vitro NEP enzyme inhibition assay; type: biochemical; conditions: fluorogenic peptide substrate; human or rat NEP not given
# Experimental: The inhibitory activities of compounds at human and rat NEP and human ACE were determined using in vitro assays as described below.
# Rat NEP was prepared from the kidneys of adult Sprague Dawley rats. Whole kidneys were washed in cold PBS and brought up in ice-cold lysis buffer (1% Triton X-114, 150 mM NaCl, 50 mM Tris pH 7.5; Bordier (1981) J. Biol. Chem. 256:1604-1607) in a ratio of 5 mL of buffer for every gram of kidney. Samples were homogenized using a polytron hand held tissue grinder on ice. Homogenates were centrifuged at 1000×g in a swinging bucket rotor for 5 minutes at 3° C. The pellet was resuspended in 20 mL of ice cold lysis buffer and incubated on ice for 30 minutes. […] Protein concentrations were quantitated using a BCA detection system with BSA as a standard. […]
# The assays were performed in 384-well white opaque plates at room temperature using the respective fluorogenic peptides at a concentration of 10 μM in assay buffer (50 mM Tris/HCl at 25° C., 100 mM NaCl, 0.01% Tween-20, 1 μM Zn, 0.025% BSA). […] The rat NEP enzyme preparation was used at a concentration that yielded quantitative proteolysis of 3 μM of Mca-RRL within 20 minutes at room temperature.
# Assays were started by adding 25 μL of enzyme to 12.5 μL of test compound at 12 concentrations ([…]). […] Plates were read on a fluorometer with excitation and emission wavelengths set to 320 nm and 405 nm, respectively. […]
compound,measurement,setting,value
"CCCC(=O)N(CCNC(=O)C(CS)CC(C)C)Cc1ccc(-c2ccccc2-c2nnn[nH]2)cc1 (centres unmarked) [Example 1, 2-Mercaptomethyl-4-methylpentanoic Acid (2-Butyryl-[2′-(1H-tetrazol-5-yl)biphenyl-4-ylmethyl]aminoethyl)amide]",Ki,human AT1 receptor,< 0.1 µM
same,pIC50 for the NEP enzyme,NEP enzyme,greater than or equal to 7.0
